Reference: publication PMC10221320
Where two headings read alike, the source gives them in different places.

Experiments:
CD-1 mice [1] = test: Hot plate test; format: in vivo, mouse; settings: 52 °C
Experimental: (§1) The animal studies were performed under the European Commission’s legislation (Directives 86/609/EEC, 2010/63/EU), the National Standard of the Russian Federation “Good Laboratory Practice” (GOST P 53434-2009, Moscow, Russia), and Committee on Ethics of Laboratory Animal Handling № 05/21, 20 September 2021 and 08/21, 30 December 2021 protocols (PIBOC FEB RAS). Adult female CD-1 mice weighing 25 ± 2 g were subjected to a 12 h light–dark cycle at room temperature and with ad libitum access to food and water. There were seven or eight individuals in each group.
Thermal analgesia was tested with a Hot Plate Analgesia Meter (IITC Life Science Inc., Woodland Hills, CA, USA). Measurements were carried out 15 min after the intravenous injection of peptides at doses of 0.1 and 1 mg/kg. The control animals received 300 µL of sterile saline. Metamizole (Pharmstandard, Russia) was used as a positive control administrated intraperitoneally at a dose of 500 mg/kg 30 min before testing. Animals were placed individually on the preheated surface of a plate (up to 52 °C), and nociceptive reactions, withdrawal, or licking of the front and hind legs were recorded.

[2] = 1 mg/kg intramuscularly; ref [34]; cited from earlier work
Description: (§2) Contradictory results concerning the involvement of ASIC1a channels in the antidepressant activity and the in vivo effects of ASIC1a inhibitors, namely tarantula toxin, PcTx1, have been published earlier. Thus, in a number of experiments, it was shown that ASI ...

ASIC3 = settings: cited from earlier work
Description: Some non-selective, low-molecular ligands of ASIC channels, acting at micromolar concentrations, are enabled for clinical medicine and veterinary procedure: local anesthetics (lidocaine and tetracaine), nonsteroidal anti-inflammatory drugs (NSAIDs) (ibuprofen, aspirin, and diclofenac), potassium-sparing diuretic amiloride and the antibacterial/antiparasitic drug, diminazene. […] Preclinical and clinical stu ... || Venom-derived toxins affecting ASICs may cause pain or, on the contrary, have analgesic, anti-inflammatory or neuroprotective effects. The first identified peptide agonist of ASIC channels, from the venom of the coral snake Micrurus tener tener, is a complex of MitTxα (Kunitz fold) and MitTxβ (phospholipase A2-like protein) subunits.

hERG channels = tested on: hERG channels; design: method as in PMID 29134638; settings: ref [36]; cited from earlier work
ASIC2a = settings: ref [36]; cited from earlier work
[3] = ref [34]; cited from earlier work
[4] = cited from earlier work
Description: (§3) Venom-derived toxins affecting ASICs may cause pain or, on the contrary, have analgesic, anti-inflammatory or neuroprotective effects. The first identified peptide agonist of ASIC channels, from the venom of the coral snake Micrurus tener tener, is a complex of MitTxα (Kunitz fold) and MitTxβ (phospholipase A2-like protein) subunits.

ASIC1b = settings: ref [36]; cited from earlier work
NaV1.8 = tested on: NaV1.8; design: method as in PMID 29134638; settings: ref [36]; cited from earlier work
rats = settings: ref [53]; cited from earlier work
Description: as §2

ASIC1a = settings: ref [20]; cited from earlier work
Description: as §3

[5] = eight hours after a stroke; ref [18],[19]; cited from earlier work
[6] = tested on: ASIC1a, ASIC1b, ASIC2a and ASIC3 channels; settings: ref [7],[13]; read-out: IC50, inhibition of ASIC1a, ASIC1b, ASIC2a and ASIC3 channels; cited from earlier work
Description: Some non-selective, low-molecular ligands of ASIC channels, acting at micromolar concentrations, are enabled for clinical medicine and veterinary procedure: local anesthetics (lidocaine and tetracaine), nonsteroidal anti-inflammatory drugs (NSAIDs) (ibuprofen, aspirin, and diclofenac), potassium-sparing diuretic amiloride and the antibacterial/antiparasitic drug, diminazene. […] Preclinical and clinical stu ...

CD-1 mice [7] = test: Carrageenan-induced paw edema; format: in vivo, mouse; settings: 1 mg/kg
Experimental: as §1
Three groups of animals were treated with peptides at doses of 0.01, 0.1 and 1 mg/kg (intravenously) 30 min before the induction of inflammation. The control animal group received an identical volume of saline. The positive control group received diclofenac (Hemofarm A.D., Vršac, Serbia) at a dose of 1 mg/kg. The edema was induced by a 20 µL injection of 1.5% solution of λ-carrageenan (Sigma Aldrich, St. Louis, MO, USA) in the hind paw pad. The resulting edema was measured after 1, 2, 4 and 24 h using a plethysmometer (Ugo Basile, Gemonio (VA), Italy). The anti-inflammatory threshold was estimated as a decrease in the paw volume and volume growth index (%), calculated using the formula: Volume Growth Index (%) = [(VC − Vi)/Vi] × 100, (1), where VC is the volume of the paw after the introduction of carrageenan and Vi is the volume of the paw before the introduction of carrageenan.

ASICs = settings: ref [45]; cited from earlier work
CD-1 mice [8] = test: Acetic-acid-induced writhings (acid-induced muscle pain model); format: in vivo, mouse; settings: 1 mg/kg i.v.
Experimental: as §1
Three groups of animals were treated with peptides at doses of 0.01, 0.1 and 1 mg/kg (intravenously) 15 min before an injection of 300 μL of a 0.7% acetic acid solution. The control animal group received an identical volume of saline. The positive control group received intravenously a dose 1 mg/kg of diclofenac (Hemofarm A.D., Vršac, Serbia), a commercial drug of the NSAID group. Fifteen minutes immediately after acid administration, the number of writhings and the writhing time (time in a spasmodic state) were counted.

With `Cc1c(N(C)CS(=O)(=O)O)c(=O)n(-c2ccccc2)n1C` [Metamizole sodium] the “increase in latent time of licking both front and hind paws” value (CD-1 mice [1]; 500 mg/kg i.p. 30 min before testing) was “more than 1.5 times”.
For APETx2, the “locomotion and CNS-mediated behavior” value [2] is given as “did not impair locomotion and the CNS-mediated behavior in the open field test”, the IC50 (ASIC3; ref [20], read-out: IC50, ASIC3) is given as 0.037 to 0.063 µM and the hERG inhibition (hERG channels) is given as “ability to inhibit hERG channels”. For the same compound, the “effect on ASIC2a” value (ASIC2a) was “potentiation”, the antihyperalgesia [3] was “induces antihyperalgesia in an acid-induced muscle pain model” and the effect on edema ([4]; ref [34]) was “partially reduces edema”. For the same compound, the “effect on ASIC1b” value (ASIC1b) was “potentiation” and the NaV1.8 inhibition (NaV1.8) was “inhibition”.
In the case of “PcTx1: ICK-peptide from the tarantula Psalmopoeus cambridgei”, the anxiety levels (rats) is given as “increases anxiety levels in rats”, the IC50 (ASIC1a) is given as 0.0003 to 0.0037 µM and the antinociceptive effect ([4]; ref [23]) is given as “strong antinociceptive effect in the acute and neuropathic pain models”. The neuroprotection after stroke [5] was “ineffective”.
In the case of `N=C(N)NC(=O)c1nc(Cl)c(N)nc1N` [amiloride], the IC50 [6] is listed as 5 to 100 µM.
In the case of `O=C(O)Cc1ccccc1Nc1c(Cl)cccc1Cl` [Diclofenac], the “anti-inflammatory effect, positive control” value (CD-1 mice [7]) is given as “reduced inflammation more rapidly (1–24 h range)”, the IC50 (ASIC3; ref [45], read-out: IC50, sustained current component of ASIC3) is given as 92 ± 19 µM and the “analgesic effect in hot plate test” value (CD-1 mice [1]; peptides 0.1 and 1 mg/kg i.v.) is given as “did not affect the pain sensitivity in this test”. For the same compound, the “inflammation-induced expression of ASICs” value (ASICs) was “decreases the inflammation-induced expression of ASICs” and the “effect on writhings, positive control” value (CD-1 mice [8]) was “reduced the number of writhings”.
